Laboratory results as given in US10710986B2, “PD-1/PD-L1 inhibitors” (Gilead Sciences, Inc., priority 2018, dated 2020).

Target: PD-1/PD-L1 (Homo sapiens (Human), UniProt Q9NZQ7)
Assay: PD-1/PD-L1 biochemical protein-protein interaction assay (ALPHA)
Settings: 0.3 nM His tagged PD-L1, 2.5 nM biotinylated Fc-PD-1, 60 minutes at 25° C., read-out: IC50 PD-L1-PD1

Sequence of PD-1/PD-L1 (Q9NZQ7 19-238): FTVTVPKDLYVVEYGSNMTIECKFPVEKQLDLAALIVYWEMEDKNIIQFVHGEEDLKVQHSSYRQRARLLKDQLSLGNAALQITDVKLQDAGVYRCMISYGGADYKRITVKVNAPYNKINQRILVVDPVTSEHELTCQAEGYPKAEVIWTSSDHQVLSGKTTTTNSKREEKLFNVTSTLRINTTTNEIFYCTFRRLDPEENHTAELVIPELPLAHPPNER

Row | SMILES | IC50 [nM]
1 | COc1nc(-c2cccc(-c3cccc(-c4cnc(CN[C@H](C)CO)c(OC)n4)c3Cl)c2Cl)cnc1CNC[C@@H]1CCC(=O)N1 [compound 347] | 0.245
2 | COc1nc(-c2cccc(-c3cccc(-c4cnc(CN5CC(N6CC(O)C6)C5)c(OC)n4)c3Cl)c2Cl)cnc1CNC[C@@H]1CCC(=O)N1 [compound 348] | 0.138
3 | COc1nc(-c2cccc(-c3cccc(-c4cnc(CN5CC(c6ccccn6)C5)c(OC)n4)c3Cl)c2Cl)cnc1CNC[C@@H]1CCC(=O)N1 [compound 349] | 0.389
4 | COc1nc(-c2cccc(-c3cccc(-c4cnc(CN5CC(c6ccccc6)C5)c(OC)n4)c3Cl)c2Cl)cnc1CNC[C@@H]1CCC(=O)N1 [compound 350] | 0.737
5 | COc1nc(-c2cccc(-c3cccc(-c4cnc(CN5CC(N6CCOCC6)C5)c(OC)n4)c3Cl)c2Cl)cnc1CNC[C@@H]1CCC(=O)N1 [compound 351] | 0.283
6 | COc1nc(-c2cccc(-c3cccc(-c4cnc(Cn5c(C)ccc5C)c(OC)n4)c3Cl)c2Cl)cnc1CNC[C@@H]1CCC(=O)N1 [compound 352] | 4.63
7 | COc1nc(-c2cccc(-c3cccc(-c4cnc(CN[C@@H]5CC[C@H](O)C5)c(OC)n4)c3Cl)c2Cl)cnc1CNC[C@@H]1CCC(=O)N1 [compound 353] | 0.064
8 | COc1nc(-c2cccc(-c3cccc(-c4cnc(CN[C@@H]5CC[C@@H](O)C5)c(OC)n4)c3Cl)c2Cl)cnc1CNC[C@@H]1CCC(=O)N1 [compound 354] | 0.133
9 | COc1nc(-c2cccc(-c3cccc(-c4cnc(CN[C@H]5CC[C@H](O)C5)c(OC)n4)c3Cl)c2Cl)cnc1CNC[C@@H]1CCC(=O)N1 [compound 355] | 0.129
10 | COc1nc(-c2cccc(-c3cccc(-c4cnc(CN[C@H]5CC[C@@H](O)C5)c(OC)n4)c3Cl)c2Cl)cnc1CNC[C@@H]1CCC(=O)N1 [compound 356] | 0.102
11 | COc1nc(-c2cccc(-c3cccc(-c4cnc(CN[C@H]5C[C@H](S(C)(=O)=O)C5)c(OC)n4)c3Cl)c2Cl)cnc1CNC[C@@H]1CCC(=O)N1 [compound 357] | 0.096
12 | COc1nc(-c2cccc(-c3cccc(-c4cnc(CN[C@H]5C[C@@H](S(C)(=O)=O)C5)c(OC)n4)c3Cl)c2Cl)cnc1CNC[C@@H]1CCC(=O)N1 [compound 358] | 0.141
13 | COc1nc(-c2cccc(-c3cccc(-c4cnc(CN[C@H]5CCOC5)c(OC)n4)c3Cl)c2Cl)cnc1CNC[C@@H]1CCC(=O)N1 [compound 359] | 0.132
14 | COc1nc(-c2cccc(-c3cccc(-c4cnc(CN[C@@H]5CCOC5)c(OC)n4)c3Cl)c2Cl)cnc1CNC[C@@H]1CCC(=O)N1 [compound 360] | 0.401
15 | COc1nc(-c2cccc(-c3cccc(-c4cnc(CN[C@H]5C[C@H](NC(C)=O)C5)c(OC)n4)c3Cl)c2Cl)cnc1CNC[C@@H]1CCC(=O)N1 [compound 361] | 0.13
16 | COc1nc(-c2cccc(-c3cccc(-c4cnc(CN[C@H]5C[C@@H](NC(C)=O)C5)c(OC)n4)c3Cl)c2Cl)cnc1CNC[C@@H]1CCC(=O)N1 [compound 362] | 0.074
17 | COc1nc(-c2cccc(-c3cccc(-c4cnc(CNC5CC6(C5)CS(=O)(=O)C6)c(OC)n4)c3Cl)c2Cl)cnc1CNC[C@@H]1CCC(=O)N1 [compound 363] | 0.424
18 | COc1nc(-c2cccc(-c3cccc(-c4cnc(CN[C@H]5C[C@H](OC)C5)c(OC)n4)c3Cl)c2Cl)cnc1CNC[C@@H]1CCC(=O)N1 [compound 364] | 0.244
19 | COc1nc(-c2cccc(-c3cccc(-c4cnc(CN[C@H]5C[C@@H](OC)C5)c(OC)n4)c3Cl)c2Cl)cnc1CNC[C@@H]1CCC(=O)N1 [compound 365] | 0.07

Row | SMILES | IC50 [nM]
20 | COc1nc(-c2cccc(-c3cccc(-c4cnc(CN[C@H]5C[C@H](C(C)(C)O)C5)c(OC)n4)c3Cl)c2Cl)cnc1CNC[C@@H]1CCC(=O)N1 [compound 366] | 0.115
21 | COc1nc(-c2cccc(-c3cccc(-c4cnc(CN5CC6(C5)CS(=O)(=O)C6)c(OC)n4)c3Cl)c2Cl)cnc1CNC[C@@H]1CCC(=O)N1 [compound 367] | 0.064
22 | COc1nc(-c2cccc(-c3cccc(-c4cnc(CN5CC6(CNC(=O)C6)C5)c(OC)n4)c3Cl)c2Cl)cnc1CNC[C@@H]1CCC(=O)N1 [compound 368] | 0.064
23 | COc1nc(-c2cccc(-c3cccc(-c4cnc(CN5CC(NC(C)=O)C5)c(OC)n4)c3Cl)c2Cl)cnc1CNC[C@@H]1CCC(=O)N1 [compound 369] | 0.078
24 | COc1nc(-c2cccc(-c3cccc(-c4cnc(CNC[C@@H]5CCC(=O)N5)c(OC)n4)c3Cl)c2Cl)cnc1CNCCn1ccccc1=O [compound 370] | 0.064
25 | COc1nc(-c2cccc(-c3cccc(-c4cnc(CN5CC6(CCC(=O)N6)C5)c(OC)n4)c3Cl)c2Cl)cnc1CNC[C@@H]1CCC(=O)N1 [compound 371] | 0.213
26 | COc1nc(-c2cccc(-c3cccc(-c4cnc(CNC[C@@H]5CCC(=O)N5)c(OC)n4)c3Cl)c2Cl)cnc1CNCCN1CCCC1=O [compound 372] | 0.104
27 | COc1nc(-c2cccc(-c3cccc(-c4cnc(CNC[C@@H]5CCC(=O)N5)c(OC)n4)c3Cl)c2Cl)cnc1CNCCNC(C)=O [compound 373] | 0.13
28 | COc1nc(-c2cccc(-c3cccc(-c4cnc(CNC[C@@H]5CCC(=O)N5)c(OC)n4)c3Cl)c2Cl)cnc1CNCCO [compound 374] | 0.183
29 | COc1nc(-c2cccc(-c3cccc(-c4cnc(CNC(C)(C)CNC(C)=O)c(OC)n4)c3Cl)c2Cl)cnc1CNC[C@@H]1CCC(=O)N1 [compound 375] | 0.459
30 | COc1nc(-c2cccc(-c3cccc(-c4cnc(CNCC(C)(C)NC(C)=O)c(OC)n4)c3Cl)c2Cl)cnc1CNC[C@@H]1CCC(=O)N1 [compound 376] | 0.208
31 | COc1nc(-c2cccc(-c3cccc(-c4cnc(CNC(C)(C)CO)c(OC)n4)c3Cl)c2Cl)cnc1CNC[C@@H]1CCC(=O)N1 [compound 377] | 0.098
32 | COc1nc(-c2cccc(-c3cccc(-c4cnc(CNCC(C)(C)O)c(OC)n4)c3Cl)c2Cl)cnc1CNC[C@@H]1CCC(=O)N1 [compound 378] | 0.396
33 | COc1nc(-c2cccc(-c3cccc(-c4cnc(CN5CC(O)C5)c(OC)n4)c3Cl)c2Cl)cnc1CNC[C@@H]1CCC(=O)N1 [compound 379] | 0.155
34 | COc1nc(-c2cccc(-c3cccc(-c4cnc(CN5CC[C@@H](O)C5)c(OC)n4)c3Cl)c2Cl)cnc1CNC[C@@H]1CCC(=O)N1 [compound 380] | 0.203
35 | COc1nc(-c2cccc(-c3cccc(-c4cnc(CN[C@@H]5CCC[C@@H]5O)c(OC)n4)c3Cl)c2Cl)cnc1CNC[C@@H]1CCC(=O)N1 [compound 381] | 0.085
36 | COc1nc(-c2cccc(-c3cccc(-c4cnc(CNCC(C)(C)O)c(OC)n4)c3Cl)c2Cl)cnc1CNCC(C)(C)O [compound 382] | 0.289
37 | COc1nc(-c2cccc(-c3cccc(-c4cnc(CN[C@@H]5CCC[C@@H]5O)c(OC)n4)c3Cl)c2Cl)cnc1CN[C@@H]1CCC[C@@H]1O [compound 383] | 0.887
38 | COc1nc(-c2cccc(-c3cccc(-c4cnc(CNC(C)(C)CO)c(OC)n4)c3Cl)c2Cl)cnc1CNC(C)(C)CO [compound 384] | 0.154

Row | SMILES | IC50 [nM]
39 | COc1nc(-c2cccc(-c3cccc(-c4cnc([C@H](C)N)c(OC)n4)c3Cl)c2Cl)cnc1[C@H](C)N [compound 385] | 0.292
40 | COc1nc(-c2cccc(-c3cccc(-c4cnc([C@@H](C)N)c(OC)n4)c3Cl)c2Cl)cnc1[C@@H](C)N [compound 386] | 0.879
41 | COc1nc(-c2cccc(-c3cccc(-c4cnc(CN[C@@H]5CC[C@@H]6CC(=O)N[C@@H]65)c(OC)n4)c3Cl)c2Cl)cnc1CNC[C@@H]1CCC(=O)N1 [compound 387] | 0.625
42 | COc1nc(-c2cccc(-c3cccc(-c4cnc(CN[C@@H]5CC[C@@H]6CC(=O)N[C@@H]65)c(OC)n4)c3Cl)c2Cl)cnc1CN[C@@H]1CC[C@@H]2CC(=O)N[C@@H]21 [compound 388] | 1.22
43 | COc1nc(-c2cccc(-c3cccc(-c4cnc(CN5CC6(CNC(=O)C6)C5)c(OC)n4)c3Br)c2Cl)cnc1CN1CC2(CNC(=O)C2)C1 [compound 389] | 0.211
44 | COc1nc(-c2cccc(-c3cccc(-c4cnc(CN5CC6(CCC(=O)N6)C5)c(OC)n4)c3Br)c2Cl)cnc1CN1CC2(CCC(=O)N2)C1 [compound 390] | 0.146
45 | COc1nc(-c2cccc(-c3cccc(-c4cnc(CN5CC(O)C5)c(OC)n4)c3Br)c2Cl)cnc1CN1CC(O)C1 [compound 391] | 0.232
46 | COc1nc(-c2cccc(-c3cccc(-c4cnc(CNC[C@H]5CCC(=O)N5)c(OC)n4)c3Br)c2Cl)cnc1CNC[C@H]1CCC(=O)N1 [compound 392] | 0.246
47 | COc1nc(-c2cccc(-c3cccc(-c4cnc(CN5CC6(CNC(=O)C6)C5)c(OC)n4)c3Br)c2F)cnc1CN1CC2(CNC(=O)C2)C1 [compound 393] | 2.23
48 | COc1nc(-c2cccc(-c3cccc(-c4cnc(CN5CC6(CCC(=O)N6)C5)c(OC)n4)c3Br)c2F)cnc1CN1CC2(CCC(=O)N2)C1 [compound 394] | 1.78
49 | COc1nc(-c2cccc(-c3cccc(-c4cnc(CN5CC(O)C5)c(OC)n4)c3Br)c2F)cnc1CN1CC(O)C1 [compound 395] | 9.24
50 | COc1nc(-c2cccc(-c3cccc(-c4cnc(CNC[C@@H]5CCC(=O)N5)c(OC)n4)c3Br)c2F)cnc1CNC[C@@H]1CCC(=O)N1 [compound 396] | 2.02
51 | COc1nc(-c2cc(F)cc(-c3cc(F)cc(-c4cnc(CNC[C@@H]5CCC(=O)N5)c(OC)n4)c3Cl)c2Cl)cnc1CNC[C@@H]1CCC(=O)N1 [compound 397] | 0.561
52 | COc1nc(-c2cccc(-c3cc(F)cc(-c4cnc(CNC[C@@H]5CCC(=O)N5)c(OC)n4)c3Cl)c2Cl)cnc1CNC[C@@H]1CCC(=O)N1 [compound 398] | 0.195
53 | COc1nc(-c2cccc(-c3cc(F)cc(-c4cnc(CN5CC(O)C5)c(OC)n4)c3Cl)c2Cl)cnc1CN1CC(O)C1 [compound 399] | 0.324
54 | COc1nc(-c2cccc(-c3cccc(-c4cnc(CN5CC(OC)C5)c(OC)n4)c3Cl)c2Cl)cnc1CN1CC(OC)C1 [compound 400] | 0.173
55 | COc1nc(-c2cccc(-c3cccc(-c4cnc(CN(C)C)c(OC)n4)c3Cl)c2Cl)cnc1CN(C)C [compound 401] | 0.295
56 | CNCc1ncc(-c2cccc(-c3cccc(-c4cnc(CNC)c(OC)n4)c3Cl)c2Cl)nc1OC [compound 402] | 0.175
57 | COc1nc(-c2cccc(-c3cccc(-c4cnc(CNC[C@@H]5CCC(=O)N5)c(OC)n4)c3Cl)c2Cl)cnc1CNCC1CC(=O)NC1=O (stereo partly drawn) [compound 403] | 0.07
